Measurements published in patent US10662187B2, “Bruton's tyrosine kinase inhibitors” (Zibo Biopolar Changsheng Pharmaceutical Co. Ltd., priority 2016, dated 2020).

target: BTK (Homo sapiens (Human), UniProt Q06187); assay: Btk kinase assay (HTRF); assay type: biochemical; settings: not given
Description: Btk Kinase Assay and Other Kinases Assay Btk kinase activity was determined using a homogenous time resolved fluorescence (HTRF) methodology. Measurements were performed in a reaction volume of 15 μL using 384-well assay plates. Kinase enzyme, inhibitor, ATP and 1 μM peptide substrate were incubated in a reaction buffer compose of Hepes 50 mM (pH7.0), NaN3 0.02%, BSA 0.01%, Orthocanadate 0.1 mM. […] For each compound, enzyme activity as measured at various concentrations of compound, Negative control reactions were performed in the absence of inhibitor in two replicates and eight no enzyme controls were used to determine baseline fluorescence levels.

Sequence of BTK (Q06187 whole entry, species assumed): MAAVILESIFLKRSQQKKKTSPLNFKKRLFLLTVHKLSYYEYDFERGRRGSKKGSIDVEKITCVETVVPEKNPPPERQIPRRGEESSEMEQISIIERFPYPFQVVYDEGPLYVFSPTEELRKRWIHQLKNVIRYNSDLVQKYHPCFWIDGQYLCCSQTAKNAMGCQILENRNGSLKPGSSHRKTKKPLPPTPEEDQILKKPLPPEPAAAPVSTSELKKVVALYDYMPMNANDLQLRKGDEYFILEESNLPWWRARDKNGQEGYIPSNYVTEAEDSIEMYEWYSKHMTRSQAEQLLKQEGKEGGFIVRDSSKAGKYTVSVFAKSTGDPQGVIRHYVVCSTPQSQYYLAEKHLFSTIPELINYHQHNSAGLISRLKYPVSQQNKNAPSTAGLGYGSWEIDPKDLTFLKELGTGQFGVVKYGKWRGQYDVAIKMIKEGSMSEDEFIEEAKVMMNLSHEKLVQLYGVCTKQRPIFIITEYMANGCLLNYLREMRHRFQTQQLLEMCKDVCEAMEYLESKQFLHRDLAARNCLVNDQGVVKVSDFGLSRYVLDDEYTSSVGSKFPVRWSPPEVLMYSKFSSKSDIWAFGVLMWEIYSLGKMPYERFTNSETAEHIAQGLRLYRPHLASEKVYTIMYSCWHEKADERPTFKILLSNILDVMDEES

SMILES | IC50 [nM]
COc1cccc(Oc2ccc(-c3nn([C@@H]4CCCC(C(=O)O)C4)c4c(OC)cncc34)cc2)c1F (stereo partly drawn) [Compound 121, (3R)-3-(3-(4-(2-fluoro-3-methoxyphenoxy)phenyl)-7-methoxy-1H-pyrazolo[4,3-c]pyridin-1-yl)cyclohexanecarboxylic acid] | 10 to 100

same assay, conditions: [ATP]=80 μM, BTK=3.4 nM; read-out: BTK Inhibition

SMILES | IC50 [nM]
COc1cccc(Oc2ccc(-c3nn([C@@H]4CCCN(C(=O)C(=O)O)C4)c4c(OC)cncc34)cc2)c1F [Compound 119, (R)-2-(3-(3-(4-(2-fluoro-3-methoxyphenoxy)phenyl)-7-methoxy-1H-pyrazolo[4,3-c]pyridin-1-yl)piperidin-1-yl)-2-oxoacetic acid] | 10 to 100
O=C(Nc1ccc(-c2nn(C3CCC(C(=O)O)CC3)c3ccncc23)cc1)c1ccccc1 (stereo not shown) [Compound 123, 4-(3-(4-benzamidophenyl)-1H-pyrazolo[4,3-c]pyridin-1-yl)cyclohexanecarboxylic acid] | > 10000
C=CC(=O)N1CCC[C@@H](n2nc(-c3ccc(Oc4cccc(OC(C)C)c4)cc3)c3cnccc32)C1 [Compound 23, (R)-1-(3-(3-(4-(3-isopropoxyphenoxy)phenyl)-1H-pyrazolo[4,3-c]pyridin-1-yl)piperidin-1-yl)prop-2-en-1-one] | 10 to 100
C=CC(=O)N1CC[C@@H](n2nc(-c3ccc(Oc4cccc(OC)c4F)cc3)c3cncc(C#N)c32)C1 [Compound 28, (R)-1-(1-acryloylpyrrolidin-3-yl)-3-(4-(2-fluoro-3-methoxyphenoxy)phenyl)-1H-pyrazolo[4,3-c]pyridine-7-carbonitrile] | < 10
C=CC(=O)N1CCC[C@@H](n2nc(Nc3ccc(N4CCN(C)CC4)cc3)c3cnccc32)C1 [Compound 114, (R)-1-(3-(3-((4-(4-methylpiperazin-1-yl)phenyl)amino)-1H-pyrazolo[4,3-c]pyridin-1-yl)piperidin-1-yl)prop-2-en-1-one] | 1000 to 10000
C=CC(=O)N1CCC[C@@H](n2nc(-c3ccc(OC4CCCCC4)cc3)c3cnccc32)C1 [Compound 29, (R)-1-(3-(3-(4-(cyclohexyloxy)phenyl)-1H-pyrazolo[4,3-c]pyridin-1-yl)piperidin-1-yl)prop-2-en-1-one] | 10 to 100
C=CC(=O)N1CC[C@@H](n2nc(-c3ccc(C(=O)NCc4cccc(OC)c4)cc3)c3cnccc32)C1 [Compound 103, (R)-4-(1-(1-acryloylpyrrolidin-3-yl)-1H-pyrazolo[4,3-c]pyridin-3-yl)-N-(3-methoxybenzyl)benzamide] | 100 to 1000
C=CC(=O)N1CCC(Cn2nc(-c3ccc(Oc4ccccc4)cc3)c3cnccc32)C1 (stereo not shown) [Compound 21, 1-(3-((3-(4-phenoxyphenyl)-1H-pyrazolo[4,3-c]pyridin-1-yl)methyl)pyrrolidin-1-yl)prop-2-en-1-one] | 10 to 100
C=CC(=O)N1CCC(n2nc(-c3ccc(NC(=O)c4cccc(C(F)(F)F)c4)cc3)c3cnccc32)C1 (stereo not shown) [Compound 116, N-{4-[1-(1-Acryloyl-pyrrolidin-3-yl)-1H-pyrazolo[4,3-c]pyridin-3-yl]-phenyl}-3-trifluoromethyl-benzamide] | 10 to 100
C=CC(=O)N1CC[C@@H](n2nc(-c3ccc(Oc4cccc(C)c4C)cc3)c3cnccc32)C1 [Compound 12, (R)-1-(3-(3-(4-(2,3-dimethylphenoxy)phenyl)-1H-pyrazolo[4,3-c]pyridin-1-yl)pyrrolidin-1-yl)prop-2-en-1-one] | 10 to 100
C=CC(=O)N1CC[C@@H](n2nc(-c3ccc(Oc4cccc(F)c4C)cc3)c3cnccc32)C1 [Compound 14, (R)-1-(3-(3-(4-(3-fluoro-2-methylphenoxy)phenyl)-1H-pyrazolo[4,3-c]pyridin-1-yl)pyrrolidin-1-yl)prop-2-en-1-one] | 10 to 100
C=CC(=O)N1CC[C@@H](n2nc3ccncc3c2-c2ccc(-c3cccc(C)c3)cc2)C1 [Compound 108, (R)-1-(3-(3-(3′-methyl-[1,1′-biphenyl]-4-yl)-2H-pyrazolo[4,3-c]pyridin-2-yl)pyrrolidin-1-yl)prop-2-en-1-one] | 100 to 1000
C=CC(=O)N1CCC[C@@H](n2nc(-c3ccc(N4CCN(S(C)(=O)=O)CC4)cc3)c3cnccc32)C1 [Compound 115, (R)-1-(3-(3-(4-(4-(methylsulfonyl)piperazin-1-yl)phenyl)-1H-pyrazolo[4,3-c]pyridin-1-yl)piperidin-1-yl)prop-2-en-1-one] | 100 to 1000
O=C(O)C1CCC(n2nc(-c3ccc(-c4ccccc4)cc3)c3cnccc32)CC1 (stereo not shown) [Compound 124, 4-(3-([1,1′-biphenyl]-4-yl)-1H-pyrazolo[4,3-c]pyridin-1-yl)cyclohexanecarboxylic acid] | > 10000
C=CC(=O)N1CCC[C@@H](n2nc(-c3ccc(Oc4ccccc4)cc3)c3cnccc32)C1 [Compound 33, (R)-1-(3-(3-(4-phenoxyphenyl)-1H-pyrazolo[4,3-c]pyridin-1-yl)piperidin-1-yl)prop-2-en-1-one] | < 10
C=CC(=O)N1CC[C@@H](n2nc(-c3ccc(Oc4cccc(OC)c4F)cc3)c3cncc(C(F)F)c32)C1 [Compound 67, (R)-1-(3-(7-(difluoromethyl)-3-(4-(2-fluoro-3-melhoxyphenoxy)phenyl)-1H-pyrazolo[4,3-c]pyridin-1-yl)pyrrolidin-1-yl)prop-2-en-1-one] | < 10
C=CC(=O)N1CCC[C@H](n2nc(-c3ccc(Oc4cccc(F)c4Cl)cc3)c3cnccc32)C1 [Compound 40, (S)-1-(3-(3-(4-(2-chloro-3-fluorophenoxy)phenyl)-1H-pyrazolo[4,3-c]pyridin-1-yl)piperidin-1-yl)prop-2-en-1-one] | 10 to 100
C=CC(=O)N1CCC[C@@H](n2nc(-c3ccc(Oc4cccc(Cl)c4C)cc3)c3cnccc32)C1 [Compound 56, (R)-1-(3-(3-(4-(3-chloro-2-methylphenoxy)phenyl)-1H-pyrazolo[4,3-c]pyridin-1-yl)piperidin-1-yl)prop-2-en-1-one] | 10 to 100
C=CC(=O)N1CC[C@@H](n2nc(-c3ccc(-c4cccc(C)c4)cc3)c3cnccc32)C1 [Compound 107, (R)-1-(3-(3-(3′-methyl-[1,1′-biphenyl]-4-yl)-1H-pyrazolo[4,3-c]pyridin-1-yl)pyrrolidin-1-yl)prop-2-en-1-one] | 10 to 100
COc1cccc(Oc2ccc(-c3nn([C@@H]4CCCN(C(=O)C(C)O)C4)c4c(OC)cncc34)cc2)c1F (stereo partly drawn) [Compound 118, 1-((R)-3-(3-(4-(2-fluoro-3-methoxyphenoxy)phenyl)-7-methoxy-1H-pyrazolo[4,3-c]pyridin-1-yl)piperidin-1-yl)-2-hydroxypropan-1-one] | 10 to 100
C=CC(=O)N1CCC[C@H](n2nc(-c3ccc(Oc4cccc(C)c4)cc3)c3cnccc32)C1 [Compound 37, (S)-1-(3-(3-(4-(m-tolyloxy)phenyl)-1H-pyrazolo[4,3-c]pyridin-1-yl)piperidin-1-yl)prop-2-en-1-one] | 10 to 100
COc1cccc(Oc2ccc(-c3nn(C4CCC(C(=O)O)CC4)c4c(OC)cncc34)cc2)c1F (stereo not shown) [Compound 122, 4-(3-(4-(2-fluoro-3-methoxyphenoxy)phenyl)-7-methoxy-1H-pyrazolo[4,3-c]pyridin-1-yl)cyclohexanecarboxylic acid] | < 10
C=CC(=O)N1CC(n2nc(-c3ccc(Oc4ccccc4)cc3)c3cnccc32)C1 [Compound 52, 1-(3-(3-(4-phenoxyphenyl)-1H-pyrazolo[4,3-c]pyridin-1-yl)azetidin-1-yl)prop-2-en-1-one] | 10 to 100
COc1cccc(Oc2ccc(-c3nn(CC4CCCN4C(=O)/C(C#N)=C/C(C)(C)C)c4c(OC)cncc34)cc2)c1F (stereo not shown) [Compound 92, (E)-2-(2-((3-(4-(2-fluoro-3-methoxyphenoxy)phenyl)-7-methoxy-1H-pyrazolo[4,3-c]pyridin-1-yl)methyl)pyrrolidine-1-carbonyl)-4,4-dimethylpent-2-enenitrile] | 10 to 100
C=CC(=O)N1CC[C@@H](n2nc(-c3ccc(OCc4ccccc4F)cc3)c3cnccc32)C1 [Compound 100, (R)-1-(3-(3-(4-((2-fluorobenzyl)oxy)phenyl)-1H-pyrazolo[4,3-c]pyridin-1-yl)pyrrolidin-1-yl)prop-2-en-1-one] | 10 to 100
C=CC(=O)N1CC[C@@H](n2nc(-c3ccc(Oc4cccc(C)c4)cc3)c3cnccc32)C1 [Compound 10, (R)-1-(3-(3-(4-(m-tolyloxy)phenyl)-1H-pyrazolo[4,3-c]pyridin-1-yl)pyrrolidin-1-yl)prop-2-en-1-one] | 10 to 100
C=CC(=O)N1CC2(CC(n3nc(-c4ccc(Oc5cccc(OC)c5Cl)cc4)c4cnccc43)C2)C1 [Compound 30, 1-(6-(3-(4-(2-chloro-3-methoxyphenoxy)phenyl)-1H-pyrazolo[4,3-c]pyridin-1-yl)-2-azaspiro[3.3]heptan-2-yl)prop-2-en-1-one] | 100 to 1000
C=CC(=O)N1CCC[C@@H](n2nc(-c3ccc(Oc4cccc(OC)c4F)cc3)c3cncc(OC(C)C)c32)C1 [Compound 96, (R)-1-(3-(3-(4-(2-fluoro-3-methoxyphenoxy)phenyl)-7-isopropoxy-1H-pyrazolo[4,3-c]pyridin-1-yl)piperidin-1-yl)prop-2-en-1-one] | 10 to 100
C=CC(=O)N1CCC[C@@H](n2nc(-c3ccc(Oc4cccc(OC)c4F)cc3)c3cncc(OCCN(C)C)c32)C1 [Compound 93, (R)-1-(3-(7-(2-(dimethylamino)ethoxy)-3-(4-(2-fluoro-3-methoxyphenoxy)phenyl)-1H-pyrazolo[4,3-c]pyridin-1-yl)piperidin-1-yl)prop-2-en-1-one] | < 10
C=CC(=O)N1CC[C@@H](n2nc(-c3ccc(N4CCN(C)CC4)cc3)c3cnccc32)C1 [Compound 112, (R)-1-(3-(3-(4-(4-methylpiperazin-1-yl)phenyl)-1H-pyrazolo [4,3-c]pyridin-1-yl)pyrrolidin-1-yl)prop-2-en-1-one] | 100 to 1000
